Experimental data as given in patent US20040063692A1, “Bazedoxifene treatment regimens” (Wyeth, priority 2002, published 2004).

Columns and labels:
Type in all cases: in vivo, Female Sprague Dawley CD rats
[1] = test system: ovariectomized (ovx) rats; test: Bone mineral density (BMD) in ovariectomized rats, daily or once weekly dosing; details: measured five weeks after initiation of treatment
Text: (§1) The ability of bazedoxifene to be successfully administered on an extended dosing regimen was established in an in vivo standard pharmacological test procedure which evaluated bone mineral density (BMD), change in body weight, and uterine weight using bazedoxifene acetate as a representative compound of this invention. The following briefly describes the procedure used and results obtained in the standard pharmacological test procedure.
(§2) Female Sprague Dawley CD rats, ovariectomized (ovx) or sham ovx, were obtained 1 day after surgery from Taconic Farm (weight range 240-275 g). They were housed 3 or 4 rats/cage in a room on a 14/10 (light/dark) schedule and provided with food (Purina 500 rat chow) and water ad libitum. Treatment for all studies began 1 day after the animals arrival and dosed either daily or once weekly as indicated for 6 weeks. A group of age matched sham operated rats not receiving any treatment served as an intact, estrogen replete control group for each study. All treatments were prepared in 1% tween 80 in normal saline at defined concentrations so that the treatment volume was 0.1 mL/100 g body weight.
Five weeks after the initiation of treatment and one week prior to the termination of the study, each rat was evaluated for bone mineral density (BMD). The BMD's of the proximal tibiae (PT) and fourth lumbar vertabrae (L4) were measured in anesthetized rats using a dual energy X-ray absorptiometer (Eclipse XR-26, Norland Corp. Ft. Atkins, Wis.). The dual energy X-ray absorptiometer (DXA) measurements for each rat were performed as follows: Fifteen minutes prior to DXA measurements, the rat was anesthetized with an intraperitoneal injection of 100 mg/kg ketamine (Bristol Laboratories, Syracuse, N.Y.) and 0.75 mg/kg acepromazine (Aveco, Ft.Dodge, Iowa). The rat was placed on an acrylic table under the DXA scanner perpendicular to its path; the limbs were extended and secured with paper tape to the surface of the table. A preliminary scan was performed at a scan speed of 50 mm/second with a scan resolution of 1.5 mm×1.5 mm to determine the region of interest in PT and L4. Small subject software was employed at a scan speed of 10 mm/second with resolution of 0.5 mm X 0.5 mm for final BMD measurements. The software allows the operator to define a 1.5 cm wide area to cover the total length of L4. The BMDs for respective sites were computed by the software as a function of the attenuation of the dual beam (46.8 KeV and 80 KeV) X-ray generated by the source underneath the subject and the detector travelling along the defined area above the subject. The data for BMD values (expressed in g/cm2) and individual scans were stored for statistical analysis.

[2] = Change in body weight in ovariectomized rats, daily or once weekly dosing; details: ovx rats, 6 weeks
Text: as §1, §2
(§3) One week after BMD evaluation the rats were euthanized by carbon dioxide suffocation. The uteri were removed and the weights taken. The following table summarizes the results that were obtained. The sham group was not ovariectomized; all other groups were ovariectomized. In the table below, bazedoxifene acetate is abbreviated as BZA.

[3] = test system: ovariectomized (ovx) rats; test: Uterine weight in ovariectomized rats, daily or once weekly dosing; details: 6 weeks
Text: as §1, §2, §3

Cc1c(-c2ccc(O)cc2)n(Cc2ccc(OCCN3CCCCCC3)cc2)c2ccc(O)cc12 [BZA, 1-[4-(2-azepan-1-yl-ethoxy)-benzyl]-2-(4-hydroxy-phenyl)-3-methyl-1H-indol-5-ol]
Total BMD, Mean ± SEM ([1]; 0.3 mg/kg 1×/week): 556.56 ± 20.5 mg/mL
Trabecular BMD, Mean ± SEM ([1]; 0.3 mg/kg 1×/week): 361.93 ± 34.5 mg/mL
Total BMD, Mean ± SEM ([1]; 0.3 mg/kg 7×/week): 604.33 ± 18.6 mg/mL
Trabecular BMD, Mean ± SEM ([1]; 0.3 mg/kg 7×/week): 425.90 ± 26.3 mg/mL
Total BMD, Mean ± SEM ([1]; 1.0 mg/kg 1×/week): 562.90 ± 7.7 mg/mL
Trabecular BMD, Mean ± SEM ([1]; 1.0 mg/kg 1×/week): 353.03 ± 15.7 mg/mL
Total BMD, Mean ± SEM ([1]; 3.0 mg/kg 1×/week): 589.36 ± 10.9 mg/mL
Trabecular BMD, Mean ± SEM ([1]; 3.0 mg/kg 1×/week): 427.00 ± 10.0 mg/mL
Δ Body Weight, Mean ± SEM ([2]; 0.3 mg/kg 1×/week): 80.5 ± 2.0 g
Δ Body Weight, Mean ± SEM ([2]; 0.3 mg/kg 7×/week): 60 ± 5.6 g
Δ Body Weight, Mean ± SEM ([2]; 1.0 mg/kg 1×/week): 71.3 ± 4.8 g
Δ Body Weight, Mean ± SEM ([2]; 3.0 mg/kg 1×/week): 59.3 ± 7.0 g
Uterine Weight, Mean ± SEM ([3]; 0.3 mg/kg 1×/week): 131.3 ± 7.0 mg
Uterine Weight, Mean ± SEM ([3]; 0.3 mg/kg 7×/week): 140.3 ± 6.3 mg
Uterine Weight, Mean ± SEM ([3]; 1.0 mg/kg 1×/week): 149.9 ± 5.0 mg
Uterine Weight, Mean ± SEM ([3]; 3.0 mg/kg 1×/week): 127.3 ± 10.9 mg
